From patent US20250214942A1, “INHIBITORS OF RECEPTOR INTERACTING PROTEIN KINASE I FOR THE TREATMENT OF DISEASE” (Board of Regents, The University of Texas System, priority 2019, published 2025)

How the values were obtained:
[1] = biological target: RIPK1 (Homo sapiens (Human), UniProt Q13546); assay: ADP-Glo kinase assay (RIPK1 activity, conversion of ATP to ADP); format: biochemical; conditions: 5 nM RIPK1, 50 μM ATP, 6 h reaction; read-out: RIPK1 Enzyme Avg IC50
Description: In order to measure RIPK1 activity the ADP-Glo kinase assay (Promega, Catalog #V7002) was used to measure the conversion of ATP to ADP. This enzymatic assay was performed in a 384-well white, Optiplate (Perkin Elmer, Catalog #6007299) with assay buffer consisting of 50 mM HEPES pH 7.5 (Gibco, Catalog #15630-080), 50 mM NaCl (Teknova, Catalog #S0252), 30 mM MgCl2 (Ambion, Catalog #AM9530G), 1 mM DTT (Santa Cruz Biotechnology, Catalog #sc-29089), 0.05% BSA (Sigma, Catalog #A3059-50G) and 0.02% CHAPS (Sigma, Catalog #C5070-5G). Stock solutions of the test compounds were prepared in 100% DMSO (Sigma, Catalog #D2650) and serially diluted 1:3 using 100% DMSO. Compounds were additionally diluted 1:40 in assay buffer, and 2 μL/well were transferred to the assay plate. 4 μL/well (final concentration of 5 nM) of RIPK1 protein (SignalChem, Catalog #R07-1IG-05) diluted in assay buffer and added to the assay plate followed by a 10 minute preincutation at rt. 4 μL/well of ATP (Promega, Catalog #V7002) (final concentration of 50 μM) diluted in assay buffer were then added to the assay plate followed by a 6 h reaction time. Final concentrations of RIPK1 and ATP refer to a 10 μL volume. Luminescence was measured using a BioTek Synergy™ NEO plate reader. IC50 values were calculated using a four-parameter logistic curve fit using Genedata Screener software.

[2] = system: human monocytic cell line U937; assay: Human U937 cellular necroptosis assay (TNFalpha + z-VAD-FMK, Cell Titer-Glo viability); format: cell-based; conditions: Homo sapiens, U-937, 22 h, U937 cells, 25 ng/mL human TNFalpha + 25 μM z-VAD-FMK, read-out: hU937 Avg IC50
In short: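 Readout is CellTiter-Glo 2.0 luminescence after 22 h at 37° C with compound, in cells triggered by human TNFalpha (25 ng/mL) and z-VAD-FMK (25 μM) in phenol red-free RPMI/10% FBS. Values are run-averaged IC50s from a four-parameter logistic curve.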

Chain of RIPK1 (Q13546 1-327): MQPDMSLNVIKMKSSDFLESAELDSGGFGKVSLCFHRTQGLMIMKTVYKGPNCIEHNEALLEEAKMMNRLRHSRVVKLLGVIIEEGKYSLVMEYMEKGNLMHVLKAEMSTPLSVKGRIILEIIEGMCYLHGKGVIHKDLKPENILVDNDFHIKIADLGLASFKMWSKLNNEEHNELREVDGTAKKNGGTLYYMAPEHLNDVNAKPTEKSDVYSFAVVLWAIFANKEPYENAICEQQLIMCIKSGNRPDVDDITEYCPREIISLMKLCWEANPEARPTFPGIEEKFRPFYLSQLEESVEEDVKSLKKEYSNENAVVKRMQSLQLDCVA

| Compound | IC50 [1] [nM] | IC50 [2] [nM] |
| --- | --- | --- |
| 1-((3-(5-(3,5-difluorophenyl)-4,5-dihydro-1H-pyrazole-1-carbonyl)bicyclo[1.1.1]-pentan-1-yl)methyl)-1H-pyrazole-3-carbonitrile and 1-((3-(5-(3,5-difluorophenyl)-4,5-dihydro-1H-pyrazole-1-carbonyl)bicyclo[1.1.1]-pentan-1-yl)methyl)-1H-pyrazole-5-carbonitrile [Example 189] | 27 | – |
| COC(=O)C12CC(C(=O)N3N=CCC3c3cc(F)cc(F)c3)(C1)C2 (centres unmarked) [Example 1, Methyl 3-(5-(3,5-difluorophenyl)-4,5-dihydro-1H-pyrazole-1-carbonyl)bicyclo[1.1.1]pentane-1-carboxylate] | 40 | – |
| O=C(O)C12CC(C(=O)N3N=CCC3c3cc(F)cc(F)c3)(C1)C2 (centres unmarked) [Example 2, 3-(5-(3,5-Difluorophenyl)-4,5-dihydro-1H-pyrazole-1-carbonyl)-bicyclo[1.1.1]pentane-1-carboxylic acid] | 21200 | – |
| CN(C)C(=O)C12CC(C(=O)N3N=CCC3c3cc(F)cc(F)c3)(C1)C2 (centres unmarked) [Example 10, 3-(5-(3,5-Difluorophenyl)-4,5-dihydro-1H-pyrazole-1-carbonyl)-N,N-dimethylbicyclo[1.1.1]pentane-1-carboxamide] | 2910 | – |
| O=C(N1N=CCC1c1cc(F)cc(F)c1)C12CC(CN3CCOCC3)(C1)C2 (centres unmarked) [Example 13, (5-(3,5-Difluorophenyl)-4,5-dihydro-1H-pyrazol-1-yl)(3-(morpholinomethyl)bicyclo[1.1.1]pentan-1-yl)methanone] | 1510 | – |
| O=C(N1N=CCC1c1cc(F)cc(F)c1)C12CC(Cn3ncc4c(F)cncc43)(C1)C2 (centres unmarked) [Example 15, (5-(3,5-Difluorophenyl)-4,5-dihydro-1H-pyrazol-1-yl)(3-((4-fluoro-1H-pyrazolo[3,4-c]-pyridin-1-yl)methyl)bicyclo[1.1.1]pentan-1-yl)methanone] | 22 | – |
| N#Cc1cnc(OCC23CC(C(=O)N4N=CCC4c4ccc(Cl)cc4)(C2)C3)cn1 (centres unmarked) [Example 310, 5-((3-(5-(4-chlorophenyl)-4,5-dihydro-1H-pyrazole-1-carbonyl)bicyclo[1.1.1]pentan-1-yl)methoxy)pyrazine-2-carbonitrile] | – | 22 |
| N#Cc1cnc(OCC23CC(C(=O)N4N=CCC4c4cccc(Cl)c4Cl)(C2)C3)cn1 (centres unmarked) [Example 311, 5-((3-(5-(2,3-dichlorophenyl)-4,5-dihydro-1H-pyrazole-1-carbonyl)bicyclo[1.1.1]pentan-1-yl)methoxy)pyrazine-2-carbonitrile] | – | 40 |
| N#Cc1cnc(OCC23CC(C(=O)N4N=CCC4c4ccc(C(F)(F)F)cc4)(C2)C3)cn1 (centres unmarked) [Example 312, 5-((3-(5-(4-(trifluoromethyl)-phenyl)-4,5-dihydro-1H-pyrazole-1-carbonyl)bicyclo-[1.1.1]pentan-1-yl)methoxy)-pyrazine-2-carbonitrile] | – | 62 |
| Cc1nc(OCC23CC(C(=O)N4N=CCC4c4cnc(C#N)cn4)(C2)C3)ccc1F (centres unmarked) [Example 313, 5-(1-(3-(((5-fluoro-6-methylpyridin-2-yl)oxy)-methyl)bicyclo[1.1.1]pentane-1-carbonyl)-4,5-dihydro-1H-pyrazol-5-yl)pyrazine-2-carbonitrile] | – | 251 |
| Cc1ccccc1C1CC=NN1C(=O)C12CC(COc3ccc(C#N)cn3)(C1)C2 (centres unmarked) [Example 314, 6-((3-(5-(o-tolyl)-4,5-dihydro-1H-pyrazole-1-carbonyl)-bicyclo[1.1.1]pentan-1-yl)-methoxy)nicotinonitrile] | – | 475 |
| Cc1nc(C2CC=NN2C(=O)C23CC(COc4ccc(C#N)cn4)(C2)C3)ccc1F (centres unmarked) [Example 315, 6-((3-(5-(5-fluoro-6-methyl-pyridin-2-yl)-4,5-dihydro-1H-pyrazole-1-carbonyl)bicyclo-[1.1.1]pentan-1-yl)methoxy)-nicotinonitrile] | – | 666 |
| N#Cc1cnc(OCC23CC(C(=O)N4N=CCC4c4ncc5ccccn45)(C2)C3)cn1 (centres unmarked) [Example 316, 5-((3-(5-(imidazo[1,5-a]-pyridin-3-yl)-4,5-dihydro-1H-pyrazole-1-carbonyl)bicyclo-[1.1.1]pentan-1-yl)methoxy)-pyrazine-2-carbonitrile] | – | 694 |
| N#Cc1cnc(OCC23CC(C(=O)N4N=CCC4c4cn5ccccc5n4)(C2)C3)cn1 (centres unmarked) [Example 317, 5-((3-(5-(imidazo[1,2-a]-pyridin-2-yl)-4,5-dihydro-1H-pyrazole-1-carbonyl)bicyclo-[1.1.1]pentan-1-yl)methoxy)-pyrazine-2-carbonitrile] | – | 8510 |
| N#Cc1cnc(OCC23CC(C(=O)N4N=CCC4c4ccccc4Cl)(C2)C3)cn1 (centres unmarked) [Example 318, 5-((3-(5-(2-chlorophenyl)-4,5-dihydro-1H-pyrazole-1-carbonyl)bicyclo[1.1.1]pentan-1-yl)methoxy)pyrazine-2-carbonitrile] | – | 55 |
| N#Cc1cnc(OCC23CC(C(=O)N4N=CCC4c4cc(F)cc(F)c4)(C2)C3)c(Cl)c1 (centres unmarked) [Example 319, 5-chloro-6-((3-(5-(3,5-difluorophenyl)-4,5-dihydro-1H-pyrazole-1-carbonyl)-bicyclo[1.1.1]pentan-1-yl)-methoxy)nicotinonitrile] | – | 21 |
| O=C(N1N=CCC1c1cc(F)cc(F)c1)C12CC(COc3ncc(Cl)cn3)(C1)C2 (centres unmarked) [Example 322, (3-(((5-chloropyrimidin-2-yl)oxy)methyl)bicyclo[1.1.1]-pentan-1-yl)(5-(3,5-difluoro-phenyl)-4,5-dihydro-1H-pyrazol-1-yl)methanone] | – | 60 |
| N#Cc1ccc(OCC23CC(C(=O)N4N=CCC4c4cc(F)cc(F)c4)(C2)C3)nn1 (centres unmarked) [Example 323, 6-((3-(5-(3,5-difluorophenyl)-4,5-dihydro-1H-pyrazole-1-carbonyl)bicyclo[1.1.1]pentan-1-yl)methoxy)pyridazine-3-carbonitrile] | – | 153 |
| N#Cc1cnc(OCC23CC(C(=O)N4N=CCC4c4cc(F)cc(F)c4)(C2)C3)nc1 (centres unmarked) [Example 324, 2-((3-(5-(3,5-difluorophenyl)-4,5-dihydro-1H-pyrazole-1-carbonyl)bicyclo[1.1.1]pentan-1-yl)methoxy)pyrimidine-5-carbonitrile] | – | 166 |
| COc1cnnc(OCC23CC(C(=O)N4N=CCC4c4cc(F)cc(F)c4)(C2)C3)c1 (centres unmarked) [Example 329, (5-(3,5-difluorophenyl)-4,5-dihydro-1H-pyrazol-1-yl)(3-(((5-methoxypyridazin-3-yl)-oxy)methyl)bicyclo[1.1.1]-pentan-1-yl)methanone] | – | 1290 |
| N#Cc1ccc(OCC23CC(C(=O)N4N=CCC4c4cc(F)c(C5CC5)c(F)c4)(C2)C3)nc1 (centres unmarked) [Example 339, 6-((3-(5-(4-cyclopropyl-3,5-difluorophenyl)-4,5-dihydro-1H-pyrazole-1-carbonyl)-bicyclo[1.1.1]pentan-1-yl)-methoxy)nicotinonitrile] | – | 453 |
| N#Cc1ccc2c(cnn2CC23CC(C(=O)N4N=CCC4c4cc(F)c(C5CC5)c(F)c4)(C2)C3)c1 (centres unmarked) [Example 340, 1-((3-(5-(4-cyclopropyl-3,5-difluorophenyl)-4,5-dihydro-1H-pyrazole-1-carbonyl)-bicyclo[1.1.1]pentan-1-yl)-methyl)-1H-indazole-5-carbonitrile] | – | 54 |
| Cn1cc(-c2ccc(OCC34CC(C(=O)N5N=CCC5c5cc(F)cc(F)c5)(C3)C4)c(Cl)c2)cn1 (centres unmarked) [Example 341, (3-((2-chloro-4-(1-methyl-1H-pyrazol-4-yl)phenoxy)methyl)-bicyclo[1.1.1]pentan-1-yl)(5-(3,5-difluorophenyl)-4,5-dihydro-1H-pyrazol-1-yl)-methanone] | – | 23 |
| N#Cc1ccc(OCC23CC(C(=O)N4N=CCC4c4cc(F)c(CO)c(F)c4)(C2)C3)nc1 (centres unmarked) [Example 342, 6-((3-(5-(3,5-difluoro-4-(hydroxymethyl)phenyl)-4,5-dihydro-1H-pyrazole-1-carbonyl)bicyclo[1.1.1]pentan-1-yl)methoxy)nicotinonitrile] | – | 380 |
| Cn1cc(-c2cnc(OCC34CC(C(=O)N5N=CCC5c5cc(F)cc(F)c5)(C3)C4)cn2)cn1 (centres unmarked) [Example 344, (5-(3,5-difluorophenyl)-4,5-dihydro-1H-pyrazol-1-yl)(3-(((5-(1-methyl-1H-pyrazol-4-yl)pyrazin-2-yl)oxy)methyl)-bicyclo[1.1.1]pentan-1-yl)methanone] | – | 56 |
| Cc1cc(F)c(C2CC=NN2C(=O)C23CC(COc4cnc(-c5cnn(C)c5)cn4)(C2)C3)cc1F (centres unmarked) [Example 345, (5-(2,5-difluoro-4-methylphenyl)-4,5-dihydro-1H-pyrazol-1-yl)(3-(((5-(1-methyl-1H-pyrazol-4-yl)pyrazin-2-yl)oxy)methyl)bicyclo[1.1.1]pentan-1-yl)methanone] | – | 61 |
